Test results published in paper PMC12703733, “Probing Guanidino Pendant or Bridged Groups in Cyclic Antimicrobial Peptides Derived from Temporin L: A Strategy to Improve Efficacy against Gram-Negative Bacteria” (Journal of Medicinal Chemistry, 2025).
In brackets after ≈: the same amount, converted by molar mass. Where two headings read alike, the source gives them in different places. Bridge positions count the residues as written; N and C are the ends. Square brackets hold non-standard residues; d marks the D form. Ends that are not written are not given here. Peptide text beside a SMILES is read from it. Pro(cis-4-guanidino) = NC(N)=N[C@@H]1CN[C@H](C(=O)O)C1

How the values were obtained:
[1] = in vitro; format: in vitro ADME
Method: Peptide stability was evaluated by modifying previously described procedures. , The assays were performed in human serum and in the presence of proteolytic enzymes such as trypsin and chymotrypsin. For human serum stability, 2 mM peptide stock solutions were prepared in water and mixed with human serum (from male AB plasma, USA origin, sterile-filtered, Merck/Sigma-Aldrich, USA) to obtain a final concentration of 200 μM [human plasma/stock solution (9:1, v/v)]. The mixtures were incubated at 37 ± 1 °C, and 50 μL aliquots were taken at predetermined time intervals (0, 1, 2, 4, 8, and 24 h). Protease activity was quenched by adding 100 μL of acetonitrile (MeCN). The resulting cloudy suspensions were cooled to 4 °C for 30 min and centrifugated at 12,000 rpm for 10 min to remove the serum proteins. Then, the supernatants were analyzed by analytical HPLC (Shimadzu Nexera Liquid Chromatograph LC-30AD) which was equipped with a Phenomenex Kinetex reversed-phase column (C18, 5 μm, 100 Å, 150 mm × 4.6 mm) with a flow rate of 1 mL/min using a gradient of MeCN (0.1% TFA) in water (0.1% TFA), from 10 to 70% over 15 min, and UV detection at 220 nm. For enzyme stability, each peptide peptide (200 μM) was incubated with trypsin (0.5 μM) in PBS 1× (pH 7.2) or with chymotrypsin (0.005 μM) in Tris–HCl (100 mM, pH 7.8). Samples (50 μL) were collected at 0, 1, 2, 4, and 24 h, quenched with 0.5% TFA in water, and analyzed by HPLC under chromatographic conditions as described above. All experiments were conducted in triplicate. The percentage of intact peptides at each time point was determined by integrating the corresponding HPLC peak areas.

[2] = format: cell-based, human; details: human
Method: (§1) For the evaluation of peptides’ cytotoxicity, the human immortalized keratinocytes (HaCaT cells), purchased from AddexBio (San Diego, CA, USA), and BEAS-2B were used. HaCaT cells were cultured in Dulbecco’s modified Eagle’s medium supplemented with 4 mM glutamine (DMEM), 10% heat-inactivated fetal bovine serum (FBS), and 0.1 mg/mL of penicillin and streptomycin, at 37 °C and 5% CO2. BEAS-2B cells were cultured in RPMI, supplemented with 2 mM glutamine (DMEM), 10% heat-inactivated fetal bovine serum (FBS), 1 mM sodium pyruvate, and 0.1 mg/mL of penicillin and streptomycin, at 37 °C and 5% CO2. Cytotoxicity was tested in vitro using a colorimetric assay that relies on the intracellular reduction of the yellow 3-(4,5-dimethylthiazol-2-yl)-2,5-diphenyltetrazolium bromide salt (MTT) by mitochondrial dehydrogenases of metabolically active cells in formazan crystals (purple). About 4 × 10^4 HaCaT and BEAS-2B cells, suspended in DMEM supplemented with 2% FBS, were plated in triplicate wells of a 96-well microtiter plate. The plate was incubated overnight at 37 °C and 5% CO2. Then, the cells were treated with different concentrations of the peptide (from 100 to 3.12 μM) in a fresh serum-free medium for 2 h and for a longer time (24 h). Following peptide treatment, the medium was removed, and MTT (0.5 mg/mL) solution in Hank’s buffer (136 mM NaCl, 4.2 mM Na2HPO4, 4.4 mM KH2PO4, 5.4 mM KCl, 4.1 mM NaHCO3, pH 7.2, supplemented with 20 mM D-glucose) was added to each well of the plate, that was then incubated for 4 h at 37 °C and 5% CO2. The purple formazan crystals were dissolved using acidified 2-propanol and a microplate reader (Infinite M200; Tecan, Salzburg, Austria) was used to measure the absorbance of each well at 570 nm. The percentage of cell viability was calculated compared to the control, which consisted of cells without any peptide treatment (corresponding to 100% viability) and all data represent the mean of three independent experiments ± SEM.

[3] = circular dichroism; details: water; pH ns; 25 °C; 150 uM
[4] = tested on: E. faecalis ATCC 29212; assay: microbe, parasite or virus in culture; format: cell-based; details: ATCC 29212
Method: (§2) Bacterial strains used in this study were the Gram-positive S. aureus ATCC 25923, S. epidermidis ATCC 12228, B. megaterium BM11, S. [NT] 27591, E. faecalis ATCC 29212 and the Gram-negative E. coli ATCC 25922, P. aeruginosa ATCC 27853, A. baumannii ATCC 19606, E. coli D21 and P. aeruginosa PAO1. […] Bacterial cells in the mid log phase were diluted in Muller Hinton (MH) at a concentration of 2 × 10^6 cell/mL. […] Ciprofloxacin was used as antibiotic control. The plate was then incubated at 37 °C. MICs were obtained from three identical readings of four independent experiments.

[5] = tested on: A. baumannii ATCC 19606; assay: microbe, parasite or virus in culture; format: cell-based; details: ATCC 19606
Method: as §2

[6] = tested on: S. epidermidis ATCC 12228; assay: microbe, parasite or virus in culture; format: cell-based; details: ATCC 12228
Method: as §2

[7] = tested on: S. aureus ATCC 25923; assay: microbe, parasite or virus in culture; format: cell-based; details: ATCC 25923
Method: as §2

[8] = tested on: B. megaterium BM11; assay: microbe, parasite or virus in culture; format: cell-based; details: BM11
Method: as §2

[9] = tested on: E. coli D21; assay: microbe, parasite or virus in culture; format: cell-based; details: D21
Method: as §2

[10] = tested on: S. agalactiae ATCC 27591; assay: microbe, parasite or virus in culture; format: cell-based; details: ATCC 27591
Method: as §2

[11] = tested on: P. aeruginosa ATCC 27853; assay: microbe, parasite or virus in culture; format: cell-based; details: ATCC 27853
Method: as §2

[12] = tested on: E. coli ATCC 25922; assay: microbe, parasite or virus in culture; format: cell-based; details: ATCC 25922
Method: as §2

[13] = format: cell-based
Method: as §1

[14] = molecular target: the molecule itself; assay: Thioflavin T fluorescence; LUVs of DOPE:DOPG:CL (65:23:12, mol/mol/mol) mimicking the Gram-negative membrane, 100 uM lipid, titrated with 5-50 uM peptide; 100 mM NaCl, 10 mM Tris-HCl, 25 uM ThT, pH 7.4; peptide oligomerisation within the vesicles

## CC[C@H](C)[C@H](NC(=O)[C@H](CCCNC(=N)N)NC(=O)[C@H]1CCC(=O)NCCCC[C@H](NC(=O)[C@H](Cc2ccccc2)NC(=O)[C@H](Cc2c[nH]c3ccccc23)NC(=O)[C@@H]2C[C@H](NC(=N)N)CN2C(=O)[C@@H](NC(=O)[C@@H](N)Cc2ccccc2)C(C)C)C(=O)N[C@@H](CCCCN)C(=O)N[C@@H](Cc2ccccc2)C(=O)N[C@H](CC(C)C)C(=O)N1)C(=O)N[C@@H](CC(C)C)C(N)=O [Peptide 7, FV(4-guanidino)PWF[KKFle]RIL] (H-FV[Pro(cis-4-guanidino)]WFKKF[dL][dE]RIL-NH2; lactam 6-10)
[1]; isolated enzyme chymotrypsin, pH 7.8
  remaining at 4 h, 200 μM: ~20%
[1]; isolated enzyme trypsin, pH 7.2
  remaining at 4 h, 200 μM: 10%
[2]; CC50
  CC50 at 24 h: 37 µM
[2]; Cell viability (%)
  viability at 2 h, 3.12 µM: 101%
  viability at 2 h, 6.25 µM: 100%
  viability at 2 h, 12.5 µM: 102%
  viability at 2 h, 25 µM: 72%
  viability at 2 h, 50 µM: 16%
  viability at 2 h, 100 µM: 8%
  viability at 24 h, 3.12 µM: 99 ± 5%
  viability at 24 h, 6.25 µM: 98 ± 1%
  viability at 24 h, 12.5 µM: 95 ± 4%
  viability at 24 h, 25 µM: 85 ± 2%
  viability at 24 h, 50 µM: 18 ± 3%
  viability at 24 h, 100 µM: 2 ± 1%
[3]
  helicity: 1%
[4]
  MIC: 12.5 µM (≈ 22 µg/mL)
[5]
  MIC: 3.12 µM (≈ 5.49 µg/mL)
[6]
  MIC: 3.12 µM (≈ 5.49 µg/mL)
[7]
  MIC: 6.25 µM (≈ 11 µg/mL)
[8]
  MIC: 0.78 µM (≈ 1.37 µg/mL)
[9]
  MIC: 3.12 µM (≈ 5.49 µg/mL)
[10]
  MIC: 1.56 µM (≈ 2.75 µg/mL)
[11]
  MIC: 12.5 µM (≈ 22 µg/mL)
[12]
  MIC: 3.12 µM (≈ 5.49 µg/mL)
[13]; Cell viability (%)
  viability at 2 h, 3.12 µM: 105%
  viability at 2 h, 6.25 µM: 117%
  viability at 2 h, 12.5 µM: 80%
  viability at 2 h, 25 µM: 28%
  viability at 2 h, 50 µM: 6%
  viability at 24 h, 3.12 µM: 111%
  viability at 24 h, 6.25 µM: 104%
  viability at 24 h, 12.5 µM: 90%
  viability at 24 h, 25 µM: 34%
  viability at 24 h, 50 µM: 9%
  viability at 24 h, 100 µM: 4%
[13]; cell viability
  viability at 12.5 µM: ~85%

B1: peptide 2 (cyclic Temporin L analogue; TLcyc with D-Glu at position 10) (peptide, UniProt P57104 1-13, looked up)
peptide: FVPWFKKF[dL][dE]RIL-NH2
modifications: lactam 6-10
notes: peptide 2 is the [Pro3,DLeu9]TL frame cyclised between positions 6 (Lys) and 10 (D-Glu); Free N-terminal amine; also called compound 2; source: synthetic peptide (Fmoc-based US-SPPS, RP-HPLC purified, >97%)
[14]
  % aggregation at P/L 0.5: ~60%

B2: peptide 7 (cyclic Temporin L analogue with a guanidino pendant at position 4 of the Pro3 ring) (peptide, UniProt P57104 1-13, looked up)
peptide: FV[Pro(4-guanidino)]WFKKF[dL][dE]RIL-NH2
modifications: lactam 6-10
notes: peptide 7 is peptide 2 with (4-guanidino)Pro in place of Pro3; also called compound 7; source: synthetic peptide (Fmoc-based US-SPPS, RP-HPLC purified, >97%)
[14]
  % aggregation at P/L 0.5: ~60%
